Laboratory results as given in paper PMC9855333, “1-(Arylsulfonyl-isoindol-2-yl)piperazines as 5-HT6R Antagonists: Mechanochemical Synthesis, In Vitro Pharmacological Properties and Glioprotective Activity” (Biomolecules, 2022).
Where “and” joins values, the source holds several entries; their conditions need not be identical. Equal entries are not always repeated.

Key:
5-HT6R [1] = molecular target: T1, 5-HT6R (Homo sapiens, UniProt P50406); assay: Radioligand binding, [3H]-LSD displacement, HEK-293 cells; parameters: expressed in transfected cells; details: Table 1; HEK293 cells; three independent binding experiments; read-out: Ki [nM] ± SEM at the 5-HT6R
T1 sequence (P50406 whole entry): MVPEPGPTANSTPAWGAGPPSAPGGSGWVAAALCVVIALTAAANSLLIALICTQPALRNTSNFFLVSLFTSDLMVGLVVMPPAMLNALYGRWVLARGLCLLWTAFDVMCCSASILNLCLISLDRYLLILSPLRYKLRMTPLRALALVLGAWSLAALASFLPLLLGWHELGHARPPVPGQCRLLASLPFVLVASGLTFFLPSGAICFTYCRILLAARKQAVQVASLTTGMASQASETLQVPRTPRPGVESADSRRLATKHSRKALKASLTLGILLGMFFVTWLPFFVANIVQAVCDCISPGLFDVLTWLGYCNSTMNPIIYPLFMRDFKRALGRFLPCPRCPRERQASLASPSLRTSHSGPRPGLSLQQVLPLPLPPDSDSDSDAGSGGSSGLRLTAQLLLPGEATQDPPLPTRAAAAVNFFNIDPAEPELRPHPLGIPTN
Experimental: All experiments were performed in HEK-293 cells, which stably express the human 5-HT1A, 5-HT6, 5-HT7b, and D2L receptors, or using CHO-K1 cells expressing human serotonin 5-HT2A receptor, following the previously reported procedures. For displacement studies, the following radioligands (PerkinElmer, USA) at given concentrations were used at: 2.5 nM [^3H]-8-OH-DPAT (135.2 Ci/ mmol); 1 nM [^3H]-ketanserin (53.4 Ci/mmol); 2 nM [^3H]-LSD (83.6 Ci/mmol); 0.8 nM [^3H]-5-CT (39.2 Ci/mmol) or 2.5 nM [^3H]-raclopride (76.0 Ci/mmol) for 5-HT1A, 5-HT2A, 5-HT6, 5-HT7b and D2L receptors, respectively. All tested compounds were evaluated in triplicate at 7 concentrations (10^−10–10^−4 M). The inhibition constants (Ki) were calculated from the Cheng–Prusoff equation [25]. A detailed description is reported in the Supporting Information.
All synthesized compounds were evaluated in ^3[H]-LSD competition binding experiments for their affinity for 5-HT6R expressed in HEK-293 cells (Table 1). Embedding the sulfonamide moiety into an unsubstituted isoindoline scaffold was sufficient to provide potent compounds 3a and 3e. […] This effect might result from the favorable localization of the bromine atom at the isoindoline fragment, which enabled compound 3k to adopt an optimal position in the receptor binding pocket via the formation of hydrophobic/steric interactions.
1. Procedure for radioligand binding assay
All experiments were carried out according to the previously published procedures. HEK293 cells stably expressing human 5-HT1A, 5-HT6, 5-HT7b and D2L receptors (prepared with the use of Lipofectamine 2000) or CHO-K1 cells with plasmid containing the sequence coding for the human serotonin 5-HT2A receptor (Perkin Elmer) were maintained at 37 °C in a humidified atmosphere containing 5% CO2 and grown in Dulbecco’s Modified Eagle’s Medium containing 10% dialyzed fetal bovine serum and 500 μg/ml G418 sulfate. For membrane preparation, cells were cultured in 150 cm2 flasks, grown to 90% confluence, washed twice with pre-warmed to 37 °C phosphate buffered saline (PBS) and centrifuged (200 × g) in PBS containing 0.1 mM EDTA and 1 mM dithiothreitol. Prior to membrane preparation, pellets were stored at –80 °C. Cell pellets were thawed and homogenized in 10 volumes of assay buffer using an Ultra Turrax tissue homogenizer and centrifuged twice at 35,000 × g for 15 min at 4 °C, with incubation for 15 min at 37 °C between the centrifugations. The composition of the assay buffers was experimentally selected to achieve the […]
5-HT1AR: 50 mM Tris HCl, 0.1 mM EDTA, 4 mM MgCl2, 10 μM pargyline and 0.1% ascorbate; 5-HT2AR: 50 mM Tris HCl, 0.1 mM EDTA, 4 mM MgCl2 and 0.1% ascorbate;
5-HT6R: 50 mM Tris HCl, 0.5 mM EDTA and 4 mM MgCl2; 5-HT7bR: 50 mM Tris HCl, 4 mM MgCl2, 10 μM pargyline and 0.1% ascorbate; D2LR: 50 mM Tris HCl, 1 mM EDTA, 4 mM MgCl2, 120 mM NaCl, 5 mM KCl, 1.5 mM CaCl2 and 0.1% ascorbate).
All assays were carried out in a total volume of 200 μL in 96-well plates for 1 h at 37 °C, except 5-HT1AR and 5-HT2AR which were incubated at room temperature and 27 °C, respectively.
The process of equilibration was terminated by rapid filtration through Unifilter plates with a 96-well cell harvester and radioactivity retained on the filters was quantified on a Microbeta plate reader (PerkinElmer, USA). For displacement studies the assay samples contained as radioligands (PerkinElmer, USA): 2.5 nM [3H]-8-OH-DPAT (135.2 Ci/ mmol) for 5-HT1AR; 1 nM [3H]-ketanserin (53.4 Ci/mmol) for 5-HT2AR; 2 nM [3H]-LSD (83.6 Ci/mmol) for 5-HT6R; 0.8 nM [3H]-5-CT (39.2 Ci/mmol) for 5-HT7R or 2.5 nM [3H]-raclopride (76.0 Ci/mmol) for D2LR. Non-specific binding was defined in the presence of 10 μM of 5-HT in 5-HT1AR and 5-HT7R binding experiments, 20 μM of mianserin for 5-HT2AR, 10 μM of methiothepine for 5-HT6R or 10 μM of haloperidol for D2LR bidning assays. Each compound was tested in triplicate at 7 concentrations (10-10–10-4 M). The inhibition constants (Ki) were calculated […]

[2] = test system: 5-HT6R-operated Cdk5 signaling; details: Figure 1; cited from earlier work
5-HT6R [3] = molecular target: T1, 5-HT6R; parameters: expressed in transfected cells; host or cells: NG108-15 (mouse neuroblastoma x rat glioma hybrid), transient co-transfection with CAMYEL, Lipofectamine 2000; details: Figure 1; cited from earlier work
C8-D1A astrocytes [4] = assay: Glioprotection against 6-OHDA-induced cytotoxicity, MTT; type: cell-based, mouse; details: compound 0.25 µM, 6-OHDA 20 µM, 24 h
Experimental: (§1) Mouse astrocytes (C8-D1A cell line, ATCC) were cultured in DMEM (Dulbecco’s Modified Eagle’s Medium) supplemented with 10% FBS (FBS; Gibco, Life Technologies, Carlsbad, CA, USA) and 1% antibiotic mixture (Gibco, Life Technologies, Carlsbad, CA, USA) at standard condition until the cells reached 80–90% confluence. Cells were harvested and seeded in 96-well plates at a density of 5000 cells/well. All experiments were conducted with a reduced amount of serum equal to 2.5%. The optimal amount of serum was determined experimentally on the basis of preliminary studies. […] Then 6-OHDA (20 µM) or rotenone (0.5 µM) were added and co-incubated for the next 24 h. The ability of tested compounds to prevent 6-OHDA-induced or rotenone-induced cytotoxicity was assessed by MTT assay following the protocol described above. The experiments were run three times in triplicates.
(§2) Considering the pivotal physiological role of astrocytes in contrasting oxidative stress and promoting tissue repair, supporting their neuroprotective function might be regarded as a tangible strategy to improve the current therapeutic needs in the treatment of neurodegenerative disorders. […] For this purpose, cells were co-incubated with the evaluated compounds (at the non-toxic concentration of 0.25 µM) and 6-OHDA or ROT (20 and 0.5 µM, respectively). After 24 h of incubation, the viability of astrocytes was determined using the MTT assay.

C8-D1A astrocytes [5] = assay: Glioprotection against rotenone-induced cytotoxicity, MTT; type: cell-based, mouse; details: compound 0.25 µM, rotenone 0.5 µM, 24 h
Experimental: as §1, §2

[6] = Cytotoxicity, MTT test, HepG2; type: cell-based; details: human, HepG2 cells (human hepatocellular carcinoma)
Experimental: (§3) Hepatotoxicity, neurotoxicity, and glial cytotoxicity were investigated using the following cellular models: human hepatocellular carcinoma (HepG2), human neuroblastoma (SHSY-5Y), and mouse astrocytes (C8-D1A), all from ATCC (American Type Culture Collection, Manassas, VA, USA). Cells were cultured in appropriate culture media recommended by ATCC supplemented with 10% fetal bovine serum (FBS; Gibco, Life Technologies, Carlsbad, CA, USA) and 1% antibiotic mixture (Gibco, Life Technologies, Carlsbad, CA, USA). Cells were cultured at standard conditions (5% CO2, 95% humidity, 37 °C). For cytotoxicity experiments, cells were seeded into 96 well plates at an initial density of 2000 cells/well. After overnight incubation, cells were treated with 3e, 3f, and 3g in a concentration range of 0.78–50 µM for 48 h; then, an MTT assay was performed as described previously. Briefly, following cell exposure, 10 µL of MTT reagent was added to each well. After the next 4 h, the medium was aspirated, and formazan produced in cells appeared as dark crystals in the bottom of the wells. Next, 100 µL DMSO was added to each well. Then, the optical density of the solution (OD) at 570 nm was determined on a plate reader (Spectra Max iD3, Molecular Devices, San Jose, CA, USA). The experiments were run three times in triplicates.

[7] = Cytotoxicity, MTT test, SH-SY5Y; type: cell-based; details: human, SH-SY5Y cells (human neuroblastoma)
Experimental: as §3

[8] = Cytotoxicity, MTT test, C8-D1A; type: cell-based; details: mouse, C8-D1A cells (mouse astrocytes)
Experimental: as §3

Compound	Ki (5-HT6R [1])	other results
O=S(=O)(c1cccc(N2CCNCC2)c1)N1Cc2ccc(Br)cc2C1 [3h, 5-Bromo-2-{[3-(piperazin-1-yl)phenyl]sulfonyl}isoindoline]	< 5 nM and 4 nM	
O=C(N[C@@H]1CCNC1)c1ccn(S(=O)(=O)c2cccc(Cl)c2)c1-c1ccc(F)cc1 [I]		Functional profile at Cdk5 [2]: Inverse agonist; Functional profile at Gs (5-HT6R [3]): Inverse agonist
NCCc1cn(S(=O)(=O)c2c(Cl)nc3sccn23)c2ccccc12 [WAY-181187]		effect on 6-OHDA-induced cytotoxicity (C8-D1A astrocytes [4]): slightly but not significantly enhanced the gliotoxic effects; effect on ROT-induced cytotoxicity (C8-D1A astrocytes [5]): slightly but not significantly enhanced the gliotoxic effects
O=S(=O)(c1ccc(N2CCNCC2)cc1)N1Cc2ccccc2C1 [3a, 2-{[4-(Piperazin-1-yl)phenyl]sulfonyl}isoindoline]	6 ± 1 nM	
O=S(=O)(c1ccc(N2CCNCC2)cc1)N1Cc2cccc(Br)c2C1 [3c, 4-Bromo-2-{[4-(piperazin-1-yl)phenyl]sulfonyl}isoindoline]	10 ± 2 nM	
O=S(=O)(c1cccc(Cl)c1)n1ccc2c(N[C@H]3CCNC3)nc3ccccc3c21 [CPPQ, (S)-1-[(3-chlorophenyl)sulfonyl]-4-(pyrrolidine-3-yl-amino)-1H-pyrrolo[3,2-c]quinoline]		effect on 6-OHDA-induced cytotoxicity (C8-D1A astrocytes [4]): decreased the cytotoxicity; effect on ROT-induced cytotoxicity (C8-D1A astrocytes [5]): decreased the cytotoxicity
COc1cccc2c1C(=O)c1c(O)c3c(c(O)c1C2=O)C[C@@](O)(C(=O)CO)C[C@@H]3O[C@H]1C[C@H](N)[C@H](O)[C@H](C)O1 [Doxorubicin, reference compound]		IC50 at 48 h [6]: 10800 nM; IC50 at 48 h [7]: 4400 nM; IC50 at 48 h [8]: 12300 nM
O=S(=O)(c1ccc(N2CCNCC2)cc1)N1Cc2cccc(Cl)c2C1 [3b, 4-Chloro-2-{[4-(piperazin-1-yl)phenyl]sulfonyl}isoindoline]	7 ± 1 nM	
O=S(=O)(c1ccc(N2CCNCC2)cc1)N1Cc2ccc(Br)cc2C1 [3d, 5-Bromo-2-{[4-(piperazin-1-yl)phenyl]sulfonyl}isoindoline]	87 ± 12 nM	

Continued, in another order:

Ki (5-HT6R [1])	Compound	other results
> 900 nM and 918 nM	O=S(=O)(c1ccccc1N1CCNCC1)N1Cc2cccc(Cl)c2C1 [3j, 4-Chloro-2-{[2-(piperazin-1-yl)phenyl]sulfonyl}isoindoline]	
> 900 nM and 977 nM	O=S(=O)(c1ccccc1N1CCNCC1)N1Cc2ccccc2C1 [3i, 2-{[2-(Piperazin-1-yl)phenyl]sulfonyl}isoindoline]	
32 ± 5 nM	O=S(=O)(c1ccccc1N1CCNCC1)N1Cc2cccc(Br)c2C1 [3k, 4-Bromo-2-{[2-(piperazin-1-yl)phenyl]sulfonyl}isoindoline]	
> 900 nM and 1170 nM	O=S(=O)(c1ccccc1N1CCNCC1)N1Cc2ccc(Br)cc2C1 [3l, 5-Bromo-2-{[2-(piperazin-1-yl)phenyl]sulfonyl}isoindoline]	
